US10023593B2, “ALK kinase inhibitor, and preparation method and uses thereof” (BEIJING PEARL BIOTECHNOLOGY LIMITED LIABILITY COMPANY, priority 2014, dated 2018)

Test system: NCI-H2228 cell line
Assay: CellTiter-Glo cell proliferation inhibition on NCI-H2228 cell line
Type: cell-based
Details: Homo sapiens, NCI-H2228, 96 h, NCI-H2228 cells, 5000 cells/well, 4 days drug treatment
Experimental: 3. Cell Proliferation Inhibitory Activities of the Compounds of the Present Invention on NCI-H2228 Cell Line
? experimental method ? CellTiter-Glo® Luminescent Cell Viability Assay kit from Promega company was used to detect cell proliferation inhibitory activities of the compounds on NCI-H2228 cell line.
? instrument ? Envision 2104 plate reader from PerKinElmer company; Vi-Cell XR cell counter from Beckman Counter company; MCO-18AIC CO2 incubator from SANYO company.
? experiment material ? CellTiter-Glo® Luminescent Cell Viability Assay Kit (Promega company, catalog No. G7573); NCI-H2228 cell line (ATCC, catalog No. CRL-5935); RPMI-1640 medium (HyClone company, catalog No. SH30809.01B); fetal bovine serum (FBS) (Gibco company, catalog No. 10099-141); trypsin (Trypsin) (Gibco company, catalog No. 25200-072); PBS (HyClone company, catalog No. SH30256.01B); 96 wells cell culture plate (Corning company, catalog No. 3610); DMSO (AMRESCO company, catalog No. 0231); 96 wells plates (for diluting compounds) (CITOTEST company, catalog No. Ref36020096D);
? experimental condition ? NCI-H2228 cells in exponential growth phase were collected and treated with trypsin (Trypsin), and viable cells were counted by Vi-Cell XR cell counter. Cell suspension was adjusted to 62500 cells/ml with culture medium (RPMI-1640+10% FBS). 80 μl cell suspension was added into each well of 96 wells cell culture plate so that the final cell number of NCI-H2228 cells was 5000 cells/well. The cells were cultivated in an incubator with an atmosphere of 37° C., 5% CO2 and 95% humidity for 2 hours and then each well was added with 20 μl compounds in RPMI-1640 medium solution (the final concentration of DMSO was 0.5%). 4 days after drug treatment, each well was added with 50 μl CellTiter-Glo solution which was previously thawed and equilibrated to room temperature, and mixed for 2 minutes with microplate shaker. After placing at room temperature for 10 minutes, luminescence value was measured by PerkinElmer Envision 2104 plate reader and the data was analyzed.
? tested samples ? Compounds of the examples.
? data analysis ? Luminescence value of DMSO solvent control (Vvehicle control, which is the mean luminescence value from DMSO solvent control group)
Tested luminescence value (Vsample, which is the luminescence value from given concentration of compounds group) Inhibition rate (%)=(1−Vsample/Vvehicle control)×100
? data processing ? IC50 of compounds was calculated by using XLfit program in Excel.

SMILES | IC50
Cc1cc(Nc2ncc(Cl)c(Nc3cn(C)nc3S(=O)(=O)CC(C)C)n2)c(OC2CC2)cc1C1CCCN(C)C1 (stereo not drawn) [Final product 61] | 85 nM
Cc1cc(Nc2ncc(Cl)c(Nc3cn(C)nc3S(=O)(=O)C(C)C)n2)c(OC(C)C)cc1C1CCCN(C)C1 (stereo not drawn) [Final product 62] | 122 nM
Cc1cc(Nc2ncc(Cl)c(Nc3cn(C)nc3S(=O)(=O)C(C)C)n2)c(OC2CCC2)cc1C1CCN(C)CC1 [Final product 63] | 31 nM
COc1cc(C2CCN(C)CC2)c(C)cc1Nc1ncc(Cl)c(Nc2cn(C)nc2S(=O)(=O)C(C)C)n1 [Final product 64] | 31 nM
CCOc1cc(C2CCN(C)CC2)c(C)cc1Nc1ncc(Cl)c(Nc2cn(C)nc2S(=O)(=O)C(C)C)n1 [Final product 65] | 38 nM
CCCOc1cc(C2CCN(C)CC2)c(C)cc1Nc1ncc(Cl)c(Nc2cn(C)nc2S(=O)(=O)C(C)C)n1 [Final product 66] | 59 nM
CC(C)Oc1cc(C2CCN(C)CC2)c(C2CC2)cc1Nc1ncc(Cl)c(Nc2cn(C)nc2S(=O)(=O)C(C)C)n1 [Final product 68] | 150 nM
CCCc1cc(Nc2ncc(Cl)c(Nc3cn(C)nc3S(=O)(=O)C(C)C)n2)c(OC(C)C)cc1C1CCN(C)CC1 [Final product 69] | 178 nM
Cc1cc(Nc2ncc(F)c(Nc3cn(C)nc3S(=O)(=O)C(C)C)n2)c(OC(C)C)cc1C1CCN(C)CC1 [Final product 71] | 199 nM
Cc1cc(Nc2ncc(C)c(Nc3cn(C)nc3S(=O)(=O)C(C)C)n2)c(OC(C)C)cc1C1CCN(C)CC1 [Final product 73] | 151 nM
Cc1cc(Nc2ncc(Cl)c(Nc3cn(C)nc3S(=O)(=O)C(C)C)n2)c(OC2CC2)cc1C1CC2COCC(C1)N2C (stereo not drawn) [Final product 74] | 19 nM
Cc1cc(Nc2ncc(Cl)c(Nc3cn(C)nc3S(=O)(=O)C(C)C)n2)c(OC2CC2)cc1CN1CCN(C)CC1 [Final product 75] | 109 nM
Cc1cc(Nc2ncc(Cl)c(Nc3cn(C)nc3S(=O)(=O)C(C)C)n2)c(OC2CC2)cc1OC1CN(C)C1 [Final product 76] | 215 nM
COCC1CC(c2cc(OC(C)C)c(Nc3ncc(Cl)c(Nc4cn(C)nc4S(=O)(=O)C(C)C)n3)cc2C)CCN1C (stereo not drawn) [Final product 78] | 128 nM
COCC(C)(C)N1CCC(c2cc(OC3CC3)c(Nc3ncc(Cl)c(Nc4cn(C)nc4S(=O)(=O)C(C)C)n3)cc2C)CC1 [Final product 84] | 46 nM
COCC(C)(C)N1CCC(c2cc(OC(C)C)c(Nc3ncc(Cl)c(Nc4cn(C)nc4S(=O)(=O)C(C)C)n3)cc2C)CC1 [Final product 85] | 77 nM
Cc1cc(Nc2ncc(Cl)c(Nc3cn(C)nc3S(=O)(=O)C3CCC3)n2)c(OC(C)C)cc1C1CCN(C)CC1 [Final product 86] | 120 nM
Cc1cc(Nc2ncc(Cl)c(Nc3cn(C)nc3S(=O)(=O)C(C)C)n2)c(OC2CC2)cc1C1CCN(C)CC1Cl (stereo not drawn) [Final product 89] | 108 nM
Cc1cc(Nc2ncc(Cl)c(Nc3cn(C)nc3S(=O)(=O)CC(C)C)n2)c(OC2CC2)cc1C1CCN(C)CC1C (stereo not drawn) [Final product 91] | 75 nM
Cc1cc(Nc2ncc(Cl)c(Nc3cn(C)nc3S(=O)(=O)CC(C)C)n2)c(OC2CC2)cc1C1CCN(C)C(C)C1 (stereo not drawn) [Final product 93] | 67 nM
Cc1cc(Nc2ncc(Cl)c(Nc3cn(C)nc3S(=O)(=O)C(C)C)n2)c(OC(C)C)cc1C1CCN(C)C(C)C1 (stereo not drawn) [Final product 94] | 79 nM
Cc1cc(Nc2ncc(Cl)c(Nc3cn(C)nc3S(=O)(=O)CC(C)C)n2)c(OC2CC2)cc1C1CC(C)N(C)C(C)C1 (stereo not drawn) [Final product 96] | 85 nM
Cc1cc(Nc2ncc(Cl)c(Nc3cn(C)nc3S(=O)(=O)C(C)C)n2)c(OC(C)C)cc1C1CC(C)(C)N(C)C(C)(C)C1 [Final product 98] | 240 nM
Cc1cc(Nc2ncc(Cl)c(Nc3cn(C)nc3S(=O)(=O)C(C)C)n2)c(OC2CC2)cc1C1CCN(C)CC1(C)C (stereo not drawn) [Final product 99] | 58 nM
Cc1cc(Nc2ncc(Cl)c(Nc3cn(C)nc3S(=O)(=O)C(C)C)n2)c(OC2CC2)cc1C1CCN(C)C(C(=O)N(C)C)C1 (stereo not drawn) [Final product 101] | 26 nM
Cc1cc(Nc2ncc(Cl)c(Nc3cn(C)nc3S(=O)(=O)C(C)C)n2)c(OC2CC2)cc1C1CCCCN1C (stereo not drawn) [Final product 102] | 103 nM

SMILES | IC50
Cc1cc(Nc2ncc(Cl)c(Nc3cn(C)nc3S(=O)(=O)CC(C)C)n2)c(OC2CC2)cc1C1CCN(C)C(=O)C1 (stereo not drawn) [Final product 104] | 70 nM
Cc1cc(Nc2ncc(Cl)c(Nc3cn(C)nc3S(=O)(=O)C(C)C)n2)c(OC2CC2)cc1C1CCN2CCCC2C1 (stereo not drawn) [Final product 105] | 63 nM
Cc1cc(Nc2ncc(Cl)c(Nc3cn(C)nc3S(=O)(=O)C(C)C)n2)c(OC2CC2)cc1C1CCCN(C)CC1 (stereo not drawn) [Final product 106] | 34 nM
Cc1cc(Nc2ncc(Cl)c(Nc3cn(C)nc3S(=O)(=O)C(C)C)n2)c(OC2CC2)cc1C1CC2COCC(C1)N2 (stereo not drawn) [Final product 108] | 33 nM
Cc1cc(Nc2ncc(Cl)c(Nc3cn(C)nc3S(=O)(=O)C(C)C)n2)c(OC2CC2)cc1C1CC2CN(C)CC(C1)O2 (stereo not drawn) [Final product 109] | 109 nM
Cc1cc(Nc2ncc(Cl)c(Nc3cn(C)nc3S(=O)(=O)C(C)C)n2)c(OC2CC2)cc1C1CCS(=O)(=O)CC1 [Final product 110] | 97 nM
CC(C)S(=O)(=O)c1nn(C)cc1Nc1nc(Nc2cc3c(cc2OC2CC2)CN(C)CC3)ncc1Cl [Final product 112] | 211 nM
CCOc1cc(C2CCN(CC)CC2)c(C)cc1Nc1ncc(Cl)c(Nc2cn(C)nc2S(=O)(=O)C(C)C)n1 [Final product 116] | 34 nM
CCN1CCC(c2cc(OC3CC3)c(Nc3ncc(Cl)c(Nc4cn(C)nc4S(=O)(=O)CC(C)C)n3)cc2C)CC1 [Final product 117] | 158 nM
CCN1CCCC(c2cc(OC(C)C)c(Nc3ncc(Cl)c(Nc4cn(C)nc4S(=O)(=O)C(C)C)n3)cc2C)C1 (stereo not drawn) [Final product 119] | 193 nM
CCN1CCCC(c2cc(OC3CC3)c(Nc3ncc(Cl)c(Nc4cn(C)nc4S(=O)(=O)C(C)C)n3)cc2C)C1 (stereo not drawn) [Final product 120] | 93 nM
CCN1CCCC(c2cc(OC3CC3)c(Nc3ncc(Cl)c(Nc4cn(C)nc4S(=O)(=O)CC(C)C)n3)cc2C)C1 (stereo not drawn) [Final product 121] | 168 nM
CCN1CCC(c2cc(OC3CCC3)c(Nc3ncc(Cl)c(Nc4cn(C)nc4S(=O)(=O)C(C)C)n3)cc2C)CC1 [Final product 122] | 79 nM
COc1cc(C2CCN(C(C)C)CC2)c(C)cc1Nc1ncc(Cl)c(Nc2cn(C)nc2S(=O)(=O)C(C)C)n1 [Final product 124] | 86 nM
CCOc1cc(C2CCN(C(C)C)CC2)c(C)cc1Nc1ncc(Cl)c(Nc2cn(C)nc2S(=O)(=O)C(C)C)n1 [Final product 125] | 47 nM
Cc1cc(Nc2ncc(Cl)c(Nc3cn(C)nc3S(=O)(=O)C(C)C)n2)c(OC(C)C)cc1C1CCCN(C(C)C)C1 (stereo not drawn) [Final product 128] | 128 nM
Cc1cc(Nc2ncc(Cl)c(Nc3cn(C)nc3S(=O)(=O)C(C)C)n2)c(OC2CC2)cc1C1CCCN(C(C)C)C1 (stereo not drawn) [Final product 129] | 32 nM
Cc1cc(Nc2ncc(Cl)c(Nc3cn(C)nc3S(=O)(=O)CC(C)C)n2)c(OC2CC2)cc1C1CCCN(C(C)C)C1 (stereo not drawn) [Final product 130] | 28 nM
Cc1cc(Nc2ncc(Cl)c(Nc3cn(C)nc3S(=O)(=O)C(C)C)n2)c(OC2CCC2)cc1C1CCN(C(C)C)CC1 [Final product 131] | 52 nM
Cc1cc(Nc2ncc(Cl)c(Nc3cn(C)nc3S(=O)(=O)C(C)C)n2)c(OC(C)C)cc1C1CN(C(C)C)C1 [Final product 132] | 207 nM
Cc1cc(Nc2ncc(Cl)c(Nc3cn(C)nc3S(=O)(=O)C(C)C)n2)c(OC(C)C)cc1C1CN(CCO)C1 [Final product 134] | 134 nM
Cc1cc(Nc2ncc(Cl)c(Nc3cn(C)nc3S(=O)(=O)C(C)C)n2)c(OC(C)C)cc1C1CCN(CCO)CC1 [Final product 136] | 112 nM
Cc1cc(Nc2ncc(Cl)c(Nc3cn(C)nc3S(=O)(=O)C(C)C)n2)c(OC2CC2)cc1C1CCCN(CCO)C1 (stereo not drawn) [Final product 139] | 90 nM
Cc1cc(Nc2ncc(Cl)c(Nc3cn(C)nc3S(=O)(=O)CC(C)C)n2)c(OC2CC2)cc1C1CCCN(CCO)C1 (stereo not drawn) [Final product 140] | 105 nM
Cc1cc(Nc2ncc(Cl)c(Nc3cn(C)nc3S(=O)(=O)C(C)C)n2)c(OC(C)C)cc1C1CCCN(CCO)C1 (stereo not drawn) [Final product 141] | 147 nM
